Reference: patent US8952024B2, “Herbicidal pyrimidone derivatives” (E I du Pont de Nemours and Company, priority 2009, dated 2015)

Legend:
Test in all cases: Test D pre-/postemergence plant response
Type in all cases: in vivo
[1] = system: Russian thistle (Salsola kali); conditions: scale 0 to 100
Text: (§1) Seeds of plant species selected from bermudagrass (Cynodon dactylon), Surinam grass (Brachiaria decumbens), large crabgrass (Digitaria sanguinalis), green foxtail (Setaria viridis), goosegrass (Eleusine indica), johnsongrass (Sorghum halepense), kochia (Kochia scoparia), morningglory (pitted morningglory, Ipomoea lacunosa), nutsedge (purple nutsedge, Cyperus rotundus), ragweed (common ragweed, Ambrosia elatior), black mustard (Brassica nigra), guineagrass (Panicum maximum), dallisgrass (Paspalum dilatatum), barnyardgrass (Echinochloa crus-galli), sandbur (southern sandbur, Cenchrus echinatus), sowthistle (common sowthistle, Sonchus oleraceous), prickly sida (Sida spinosa), Italian ryegrass (Lolium multiflorum), purslane (common purslane, Portulaca oleracea), signalgrass (broadleaf signalgrass, Brachiaria platyphylla), groundsel (common groundsel, Senecio vulgaris), chickweed (common chickweed, Stellaria media), dayflower (Virginia (VA) dayflower, Commelina virginica), bluegrass (annual bluegrass, Poa annua), naked crabgrass (Digitaria nuda), itchgrass (Rottboellia cochinchinensis), quackgrass (Elytrigia repens), field bindweed (Convolvulus arvensis), spanishneedles (Bidens bipinnata), mallow (common mallow, Malva sylvestris) and Russian thistle (Salsola kali), were planted into a blend of loam soil and sand and treated preemergence with test chemicals formulated in a non-phytotoxic solvent mixture which included a surfactant. At the same time, plants from these weed species were treated with postemergence applications of the test chemicals formulated in the same manner. Plants ranged in height from 2 to 18 cm (1- to 4-leaf stage) for postemergence treatments.
(§2) Treated plants and controls were maintained in a greenhouse for 14 to 21 days, after which time all species were visually evaluated and compared to controls. Plant response ratings, summarized in Table D, are based on a scale of 0 to 100 where 0 is no effect and 100 is complete control. A dash (-) response means no test result.

[2] = system: bermudagrass (Cynodon dactylon)
Text: as §1, §2

[3] = system: black mustard (Brassica nigra)
Text: as §1, §2

[4] = system: chickweed (common chickweed, Stellaria media); conditions: Postemergence, 125 g ai/ha; scale 0 to 100 (0 no effect, 100 complete control)
Text: as §1, §2

[5] = system: field bindweed (Convolvulus arvensis)
Text: as §1, §2

[6] = system: goosegrass (Eleusine indica)
Text: as §1, §2

[7] = system: green foxtail (Setaria viridis)
Text: as §1, §2

[8] = system: groundsel (common groundsel, Senecio vulgaris); conditions: Postemergence
Text: as §1, §2

[9] = system: johnsongrass (Sorghum halepense)
Text: as §1, §2

kochia (Kochia scoparia) = system: kochia (Kochia scoparia)
Text: as §1, §2

[10] = system: mallow (common mallow, Malva sylvestris)
Text: as §1, §2

[11] = system: morningglory (pitted morningglory, Ipomoea lacunosa)
Text: as §1, §2

[12] = system: nutsedge (purple nutsedge, Cyperus rotundus)
Text: as §1, §2

[13] = system: prickly sida (Sida spinosa)
Text: as §1, §2

[14] = system: purslane (common purslane, Portulaca oleracea)
Text: as §1, §2

[15] = system: sowthistle (common sowthistle, Sonchus oleraceous)
Text: as §1, §2

[16] = system: spanishneedles (Bidens bipinnata)
Text: as §1, §2

[17] = Postemergence, 16 g ai/ha, scale 0 to 100
[18] = Postemergence, 31 g ai/ha, scale 0 to 100 (0 no effect, 100 complete control)
[19] = Postemergence, 125 g ai/ha, scale 0 to 100 (0 no effect, 100 complete control)
[20] = Postemergence, 62 g ai/ha, scale 0 to 100 (0 no effect, 100 complete control)
[21] = Preemergence, 16 g ai/ha, scale 0 to 100, 0 no effect, 100 complete control
[22] = Preemergence, 31 g ai/ha, scale 0 to 100 (0 no effect, 100 complete control)
[23] = Preemergence, 62 g ai/ha, scale 0 to 100
[24] = Preemergence, 125 g ai/ha, scale 0 to 100
[25] = Postemergence, 31 g ai/ha, scale 0 to 100

Cc1ccc(F)c(-n2c(-c3ccccc3)ncc(C(=O)C3=C(O)CCCC3=O)c2=O)c1 [Compound 51]
98: Plant response rating, Groundsel ([8]; 31 g ai/ha, scale 0 to 100) | Plant response rating, Sowthistle [15, 25] | Plant response rating, Spanishneedles [16, 24]
65: Plant response rating, Bermudagrass [2, 17] | Plant response rating, Goosegrass [6, 25] | Plant response rating, Goosegrass [6, 19] | Plant response rating, Goosegrass [6, 20] | Plant response rating, Foxtail, Green [7, 19] | Plant response rating, Mallow [10, 24] | Plant response rating, Morningglory [11, 19] | Plant response rating, Prickly Sida [13, 20] | Plant response rating, Purslane [14, 23]
30: Plant response rating, Bermudagrass [2, 24] | Plant response rating, Morningglory [11, 23]
60: Plant response rating, Field Bindweed [5, 19] | Plant response rating, Johnsongrass [9, 20] | Plant response rating, Spanishneedles [16, 20]
40: Plant response rating, Goosegrass [6, 23] | Plant response rating, Goosegrass [6, 24] | Plant response rating, Foxtail, Green [7, 20] | Plant response rating, Sowthistle [15, 21]
80: Plant response rating, Bermudagrass [2, 20]
70: Plant response rating, Black Mustard [3, 17] | Plant response rating, Chickweed [4] | Plant response rating, Johnsongrass [9, 19] | Plant response rating, Johnsongrass [9, 24] | Plant response rating, Spanishneedles [16, 19]
85: Plant response rating, Bermudagrass [2, 19] | Plant response rating, Groundsel ([8]; 16 g ai/ha, scale 0 to 100)
95: Plant response rating, Black Mustard [3, 18] | Plant response rating, Sowthistle [15, 17]
15: Plant response rating, Nutsedge, Purple [12, 20]
20: Plant response rating, Field Bindweed [5, 20] | Plant response rating, Goosegrass [6, 21] | Plant response rating, Goosegrass [6, 22] | Plant response rating, Foxtail, Green [7, 25] | Plant response rating, Johnsongrass [9, 17] | Plant response rating, Johnsongrass [9, 23] | Plant response rating, Kochia (kochia (Kochia scoparia); [19]) | Plant response rating, Mallow [10, 19] | Plant response rating, Morningglory [11, 25] | Plant response rating, Morningglory [11, 20] | Plant response rating, Nutsedge, Purple [12, 19] | Plant response rating, Prickly Sida [13, 22] | Plant response rating, Prickly Sida [13, 23] | Plant response rating, Purslane [14, 25]
5: Plant response rating, Field Bindweed [5, 17] | Plant response rating, Field Bindweed [5, 25] | Plant response rating, Kochia (kochia (Kochia scoparia); [17]) | Plant response rating, Kochia (kochia (Kochia scoparia); [25]) | Plant response rating, Kochia (kochia (Kochia scoparia); [20]) | Plant response rating, Nutsedge, Purple [12, 23] | Plant response rating, Nutsedge, Purple [12, 24]
0: Plant response rating, Russian Thistle ([1]; Postemergence, 16 g ai/ha) | Plant response rating, Bermudagrass [2, 21] | Plant response rating, Bermudagrass [2, 22] | Plant response rating, Bermudagrass [2, 23] | Plant response rating, Black Mustard [3, 21] | Plant response rating, Field Bindweed [5, 21] | Plant response rating, Field Bindweed [5, 22] | Plant response rating, Field Bindweed [5, 23] | Plant response rating, Field Bindweed [5, 24] | Plant response rating, Foxtail, Green [7, 21] | Plant response rating, Foxtail, Green [7, 22] | Plant response rating, Foxtail, Green [7, 23] | Plant response rating, Foxtail, Green [7, 24] | Plant response rating, Johnsongrass [9, 21] | Plant response rating, Johnsongrass [9, 22] | Plant response rating, Kochia (kochia (Kochia scoparia); [21]) | Plant response rating, Kochia (kochia (Kochia scoparia); [23]) | Plant response rating, Mallow [10, 17] | Plant response rating, Mallow [10, 25] | Plant response rating, Mallow [10, 20] | Plant response rating, Mallow [10, 21] | Plant response rating, Mallow [10, 22] | Plant response rating, Mallow [10, 23] | Plant response rating, Morningglory [11, 17] | Plant response rating, Morningglory [11, 21] | Plant response rating, Morningglory [11, 22] | Plant response rating, Nutsedge, Purple [12, 17] | Plant response rating, Nutsedge, Purple [12, 25] | Plant response rating, Nutsedge, Purple [12, 21] | Plant response rating, Nutsedge, Purple [12, 22] | Plant response rating, Prickly Sida [13, 21] | Plant response rating, Purslane [14, 21] | Plant response rating, Spanishneedles [16, 21] | Plant response rating, Spanishneedles [16, 22]
35: Plant response rating, Goosegrass [6, 17] | Plant response rating, Johnsongrass [9, 25] | Plant response rating, Prickly Sida [13, 24] | Plant response rating, Purslane [14, 19] | Plant response rating, Purslane [14, 20] | Plant response rating, Spanishneedles [16, 17]
75: Plant response rating, Russian Thistle ([1]; Preemergence, 125 g ai/ha) | Plant response rating, Bermudagrass [2, 18] | Plant response rating, Black Mustard [3, 23] | Plant response rating, Prickly Sida [13, 19] | Plant response rating, Sowthistle [15, 22]
100: Plant response rating, Black Mustard [3, 19] | Plant response rating, Black Mustard [3, 24] | Plant response rating, Groundsel ([8]; 125 g ai/ha, scale 0 to 100 (0 no effect, 100 complete control)) | Plant response rating, Groundsel ([8]; 62 g ai/ha, scale 0 to 100 (0 no effect, 100 complete control)) | Plant response rating, Morningglory [11, 24] | Plant response rating, Purslane [14, 24] | Plant response rating, Sowthistle [15, 19] | Plant response rating, Sowthistle [15, 20] | Plant response rating, Sowthistle [15, 24]
50: Plant response rating, Black Mustard [3, 22] | Plant response rating, Kochia (kochia (Kochia scoparia); [24]) | Plant response rating, Prickly Sida [13, 17] | Plant response rating, Prickly Sida [13, 25] | Plant response rating, Purslane [14, 22] | Plant response rating, Spanishneedles [16, 25]
10: Plant response rating, Foxtail, Green [7, 17] | Plant response rating, Purslane [14, 17]
